# ChEMBL document CHEMBL1201862, “PubChem BioAssay data set” (2004)
#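 How tested: cells in 96-well plates exposed to compound for 48 hours at five concentrations. GI50 marks 50% less growth.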 Calls of active or inactive are those of the source. Cut-off read from the data, not from the text of the source: active = GI50 up to about 1.1 µM and inactive = higher.
# Columns and labels:
# Experiment in all cases: DTP human tumour cell line panel, 48 h
# [1] = tested on: 786-0
# [2] = tested on: A498
# [3] = tested on: A549
# [4] = tested on: ACHN
# [5] = tested on: CAKI-1
# [6] = tested on: CCRF-CEM
# [7] = tested on: COLO 205
# [8] = tested on: DLD-1
# [9] = tested on: DMS-114
# [10] = tested on: DMS-273
# [11] = tested on: EKVX
# [12] = tested on: HCC 2998
# [13] = tested on: HCT-116
# [14] = tested on: HCT-15
# [15] = tested on: HOP-18
# [16] = tested on: HOP-62
# [17] = tested on: HT-29
# [18] = tested on: IGROV-1
# [19] = tested on: K562
# [20] = tested on: KM-20L2
# [21] = tested on: KM12
# [22] = tested on: LOX IMVI
# [23] = tested on: LXFL 529
# [24] = tested on: M14
# [25] = tested on: M19-MEL
# [26] = tested on: MOLT-4
# [27] = tested on: Malme-3M
# [28] = tested on: NCI-H23
# [29] = tested on: NCI-H460
# [30] = tested on: OVCAR-3
# [31] = tested on: OVCAR-4
# [32] = tested on: OVCAR-5
# [33] = tested on: OVCAR-8
# [34] = tested on: RPMI-8226
# [35] = tested on: RXF 393
# [36] = tested on: RXF 631
# [37] = tested on: SF-268
# [38] = tested on: SF-295
# [39] = tested on: SF-539
# [40] = tested on: SK-MEL-28
# [41] = tested on: SK-MEL-2
# [42] = tested on: SK-MEL-5
# [43] = tested on: SK-OV-3
# [44] = tested on: SN12C
# [45] = tested on: SNB-19
# [46] = tested on: SNB-75
# [47] = tested on: SNB-78
# [48] = tested on: SW-620
# [49] = tested on: TK-10
# [50] = tested on: U-251
# [51] = tested on: UACC-257
# [52] = tested on: UACC-62
# [53] = tested on: UO-31
# [54] = tested on: XF498
# [55] = tested on: HL-60
# [56] = tested on: HOP-92
# [57] = tested on: NCI-H226
# [58] = tested on: NCI-H522
# [59] = tested on: SR
smiles,measurement,setting,value
COc1c(Sc2ccccc2)cc(Sc2ccccc2)c2cccnc12,GI50,[1],20.2 µM (inactive)
same,GI50,[2],29.1 µM (inactive)
same,GI50,[3],24 µM (inactive)
same,GI50,[4],26.8 µM (inactive)
same,GI50,[5],12.9 µM (inactive)
same,GI50,[6],20 µM (inactive)
same,GI50,[7],19.6 µM (inactive)
same,GI50,[8],27.9 µM (inactive)
same,GI50,[9],24.1 µM (inactive)
same,GI50,[10],20 µM (inactive)
same,GI50,[11],28.2 µM (inactive)
same,GI50,[12],41.9 µM (inactive)
same,GI50,[13],28.9 µM (inactive)
same,GI50,[14],15.4 µM
same,GI50,[15],0.0263 µM (active)
same,GI50,[16],34.9 µM (inactive)
same,GI50,[17],24.9 µM (inactive)
same,GI50,[18],46.1 µM (inactive)
same,GI50,[19],23.7 µM (inactive)
same,GI50,[20],21.2 µM (inactive)
same,GI50,[21],24.4 µM (inactive)
same,GI50,[22],17.6 µM (inactive)
same,GI50,[23],30.8 µM (inactive)
same,GI50,[24],27 µM (inactive)
same,GI50,[25],28.9 µM (inactive)
same,GI50,[26],19.5 µM (inactive)
same,GI50,[27],15.1 µM (inactive)
same,GI50,[28],19.5 µM (inactive)
same,GI50,[29],20.2 µM (inactive)
same,GI50,[30],20.9 µM (inactive)
same,GI50,[31],16.2 µM (inactive)
same,GI50,[32],40.2 µM (inactive)
same,GI50,[33],27.4 µM (inactive)
same,GI50,[34],17.6 µM (inactive)
same,GI50,[35],11.8 µM (inactive)
same,GI50,[36],27.9 µM (inactive)
same,GI50,[37],37.3 µM (inactive)
same,GI50,[38],17.3 µM (inactive)
same,GI50,[39],26.2 µM (inactive)
same,GI50,[40],35.9 µM (inactive)
same,GI50,[41],17.6 µM (inactive)
same,GI50,[42],16.4 µM (inactive)
same,GI50,[43],> 100 µM (inactive)
same,GI50,[44],28.2 µM (inactive)
same,GI50,[45],31.8 µM (inactive)
same,GI50,[46],19.5 µM (inactive)
same,GI50,[47],34 µM (inactive)
same,GI50,[48],39.2 µM (inactive)
same,GI50,[49],23.2 µM (inactive)
same,GI50,[50],29.2 µM (inactive)
same,GI50,[51],18.2 µM (inactive)
same,GI50,[52],18.2 µM (inactive)
same,GI50,[53],19.1 µM (inactive)
same,GI50,[54],17.7 µM (inactive)
N#CCCN(c1ccc(/C=N/c2ccccc2Cl)cc1)S(=O)(=O)c1ccccc1,GI50,[1],> 100 µM (inactive)
same,GI50,[2],> 100 µM (inactive)
same,GI50,[3],> 100 µM (inactive)
same,GI50,[4],> 100 µM (inactive)
same,GI50,[5],> 100 µM (inactive)
same,GI50,[7],> 100 µM (inactive)
same,GI50,[8],> 100 µM (inactive)
same,GI50,[9],> 100 µM (inactive)
same,GI50,[10],> 100 µM (inactive)
same,GI50,[11],> 100 µM (inactive)
same,GI50,[12],> 100 µM (inactive)
same,GI50,[13],> 100 µM (inactive)
same,GI50,[14],> 100 µM
same,GI50,[55],> 100 µM (inactive)
same,GI50,[15],> 100 µM (inactive)
same,GI50,[16],> 100 µM (inactive)
same,GI50,[56],> 100 µM (inactive)
same,GI50,[17],> 100 µM (inactive)
same,GI50,[18],> 100 µM (inactive)
same,GI50,[19],> 100 µM (inactive)
same,GI50,[20],> 100 µM (inactive)
same,GI50,[21],> 100 µM (inactive)
same,GI50,[22],> 100 µM (inactive)
same,GI50,[23],> 100 µM (inactive)
same,GI50,[24],> 100 µM (inactive)
same,GI50,[25],> 100 µM (inactive)
same,GI50,[26],> 100 µM (inactive)
same,GI50,[27],> 100 µM (inactive)
same,GI50,[57],> 100 µM (inactive)
same,GI50,[28],> 100 µM (inactive)
same,GI50,[29],> 100 µM (inactive)
same,GI50,[58],> 100 µM (inactive)
same,GI50,[30],> 100 µM (inactive)
same,GI50,[31],> 100 µM (inactive)
same,GI50,[32],> 100 µM (inactive)
same,GI50,[33],> 100 µM (inactive)
same,GI50,[34],> 100 µM (inactive)
same,GI50,[35],> 100 µM (inactive)
same,GI50,[36],> 100 µM (inactive)
same,GI50,[37],> 100 µM (inactive)
same,GI50,[38],> 100 µM (inactive)
same,GI50,[39],> 100 µM (inactive)
same,GI50,[40],> 100 µM (inactive)
same,GI50,[41],> 100 µM (inactive)
same,GI50,[42],> 100 µM (inactive)
same,GI50,[43],> 100 µM (inactive)
same,GI50,[44],> 100 µM (inactive)
same,GI50,[45],> 100 µM (inactive)
same,GI50,[46],> 100 µM (inactive)
same,GI50,[47],> 100 µM (inactive)
same,GI50,[59],> 100 µM (inactive)
same,GI50,[48],> 100 µM (inactive)
same,GI50,[49],> 100 µM (inactive)
same,GI50,[50],> 100 µM (inactive)
same,GI50,[51],> 100 µM (inactive)
same,GI50,[52],> 100 µM (inactive)
same,GI50,[53],> 100 µM (inactive)
same,GI50,[54],> 100 µM (inactive)
